Tests used:
PKC theta = target: T1, PKC theta (Homo sapiens, UniProt Q04759); test: PKC assay, fluorescence polarization (Example 2), PKC theta; assay type: biochemical; conditions: 5 μM ATP
T1 construct: purchased Upstate Biotechnologies, Temecula, CA 14-444
Method: (§1) The inhibition of PKC activity was measured by monitoring the production of phosphorylated peptide by fluorescence polarization at different concentrations of the inhibitor. Reactions were carried out in 96-well plate format with a total volume of 20 μL containing 20 mM HEPES, pH 7.4, 5 mM MgCl2, 0.2 mM CaCl2, 1 mM DTT, 0.02% Brij-35, 0.1 mg/mL phosphatidylserine, 0.02 mg/mL dioleoyl-sn-glycerol and 5 μM each of ATP and the peptide substrate. Compounds were first diluted serially in DMSO and then transferred to a solution containing the above concentrations of HEPES, MgCl2, CaCl2, DTT, and Brij-35 to yield 5× compound solutions in 2% DMSO, which was then added to the reaction solution. Reactions were initiated by the addition of PKC at a typical concentration as described in Table VI, and then allowed to incubate at room temperature for 20 min. At the end of this time, a combination of quench (EDTA) and detection (peptide tracer and antibody) reagents was added using the protocol of Invitrogen P2748.

PKC epsilon = target: T2, PKC epsilon (Homo sapiens, UniProt Q02156); test: PKC assay, fluorescence polarization (Example 2), PKC epsilon; assay type: biochemical; conditions: 5 μM ATP
T2 construct: purchased Upstate Biotechnologies, Temecula, CA 14-518
T2 sequence (Q02156 1-737): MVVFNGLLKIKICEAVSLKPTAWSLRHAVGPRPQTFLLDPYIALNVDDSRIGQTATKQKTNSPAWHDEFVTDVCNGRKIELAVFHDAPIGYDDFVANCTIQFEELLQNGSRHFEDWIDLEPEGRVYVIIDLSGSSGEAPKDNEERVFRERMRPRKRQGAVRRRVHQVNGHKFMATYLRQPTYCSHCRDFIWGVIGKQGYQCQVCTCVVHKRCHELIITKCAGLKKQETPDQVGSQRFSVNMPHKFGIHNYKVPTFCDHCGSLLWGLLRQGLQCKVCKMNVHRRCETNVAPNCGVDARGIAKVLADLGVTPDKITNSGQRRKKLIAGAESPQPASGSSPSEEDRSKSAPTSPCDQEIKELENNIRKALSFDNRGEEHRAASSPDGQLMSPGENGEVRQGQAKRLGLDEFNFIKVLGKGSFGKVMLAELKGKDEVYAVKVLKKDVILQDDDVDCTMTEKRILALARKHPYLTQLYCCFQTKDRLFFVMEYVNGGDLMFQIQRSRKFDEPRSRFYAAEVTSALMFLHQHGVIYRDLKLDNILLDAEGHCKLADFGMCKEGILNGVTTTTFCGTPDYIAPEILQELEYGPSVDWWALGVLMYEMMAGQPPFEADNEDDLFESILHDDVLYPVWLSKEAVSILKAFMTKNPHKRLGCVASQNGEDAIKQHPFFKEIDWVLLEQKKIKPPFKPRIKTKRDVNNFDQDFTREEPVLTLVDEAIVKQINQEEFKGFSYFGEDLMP
Method: as §1

Human primary T cells = test: IL-2 ELISA, Human Primary T Cell, Anti-CD3+CD28+ (Example 3); assay type: cell-based; conditions: anti-CD3+CD28 stimulation
Outline: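 IL-2 was read by ELISA after stimulation on wells pre-coated with 1 ug/ml αCD3 and 5 μg/ml αCD28. Before this, 100,000 human primary T cells per well spent 1 h at 37 °C with test compound in Yssel's medium. The counter-screen replaced antibody stimulation with PMA (0.5 ng/ml final) and ionomycin (0.1 uM final).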

T1 sequence (Q04759 whole entry): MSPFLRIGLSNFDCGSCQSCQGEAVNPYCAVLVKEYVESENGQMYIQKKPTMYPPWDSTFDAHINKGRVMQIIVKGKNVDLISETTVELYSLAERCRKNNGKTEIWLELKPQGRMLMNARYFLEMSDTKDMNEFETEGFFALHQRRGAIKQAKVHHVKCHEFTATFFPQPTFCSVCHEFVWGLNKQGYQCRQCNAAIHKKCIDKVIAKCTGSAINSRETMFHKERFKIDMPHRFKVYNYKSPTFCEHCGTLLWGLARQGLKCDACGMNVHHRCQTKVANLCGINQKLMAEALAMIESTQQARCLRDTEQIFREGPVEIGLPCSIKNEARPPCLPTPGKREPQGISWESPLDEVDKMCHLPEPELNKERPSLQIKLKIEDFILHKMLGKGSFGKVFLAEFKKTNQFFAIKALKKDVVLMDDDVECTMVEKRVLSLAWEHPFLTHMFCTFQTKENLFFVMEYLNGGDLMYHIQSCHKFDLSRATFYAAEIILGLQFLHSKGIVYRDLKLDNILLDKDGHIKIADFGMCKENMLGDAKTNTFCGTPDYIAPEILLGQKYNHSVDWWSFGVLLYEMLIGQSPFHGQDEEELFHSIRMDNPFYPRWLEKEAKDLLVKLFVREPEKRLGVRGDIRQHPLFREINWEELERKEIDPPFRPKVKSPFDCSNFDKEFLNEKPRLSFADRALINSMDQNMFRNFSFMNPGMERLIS

Compound | IC50 (PKC theta) [nM] | IC50 (PKC epsilon) [nM] | IC50 (Human primary T cells; Homo sapiens, T-cell, 24 h) [nM] | IC50 (Human primary T cells; 24 hours) [nM]
Cc1ccc(Nc2ncc(C#N)c(NC3CC(C)(C)N(C)C(C)(C)C3)n2)cc1-n1cnnn1 [Compound I-459] | 0.3 | 22 | 50 | 
CN1C(=O)C(C)(C)Oc2cc(Nc3ncc(F)c(NC4CC(C)(C)N(C)C(C)(C)C4)n3)ccc21 [II-34] | 15.7 | 102 | 224 | 
CN1C(C)(C)CC(Nc2nc(Nc3ccc(C#N)c(C#N)c3)ncc2F)CC1(C)C [Compound I-141] | 3.29 | 249 | 245 | 
CN1C(C)(C)CC(Nc2nc(Nc3ccc(F)c(C#N)c3)ncc2F)CC1(C)C [Compound I-140] | 5.48 | 158 | 229 | 
Cc1ccc(Nc2ncc(F)c(NC3CC(C)(C)N(C)C(C)(C)C3)n2)cc1-c1ccoc1 [Compound I-188] | 4.74 | 36.7 | 178 | 
Cc1ccc(Nc2ncc(F)c(NC3CC(C)(C)N(C)C(C)(C)C3)n2)cc1C#N [Compound I-142] | 2.92 | 31 | 80.7 | 
Cc1ccc(Nc2ncc(Cl)c(NC3CC(C)(C)N(C)C(C)(C)C3)n2)cc1C#N [Compound I-168] | 2.72 | 32.7 | 120 | 
CN1C(C)(C)CC(Nc2nc(Nc3ccc(CN4CCOCC4)c(C#N)c3)ncc2F)CC1(C)C [Compound I-450] | 2.5 | 9 |  | 260
COc1ccc(Nc2ncc(F)c(NC3CC(C)(C)N(C)C(C)(C)C3)n2)cc1-n1c(C)ccc1C [Compound I-348] | 3.66 | 100 | 172 | 
CCN1C(=O)C(C)(C)Oc2cc(Nc3ncc(C)c(NC4CC(C)(C)N(C)C(C)(C)C4)n3)ccc21 [II-145] | 28.1 | 2690 | 370 | 
CN1C(C)(C)CC(Nc2nc(Nc3ccc(N4CCN(S(C)(=O)=O)CC4)c(Cl)c3)ncc2C(F)(F)F)CC1(C)C [Compound I-92] | 4.56 | 271 | 208 | 
Cc1cc(Nc2ncc(F)c(NC3CC(C)(C)N(C)C(C)(C)C3)n2)ccc1-c1ccoc1 [Compound I-122] | 60.7 | 18.7 | 295 | 
CN1C(C)(C)CC(Nc2nc(Nc3ccc(-c4cccnc4)c(F)c3)ncc2F)CC1(C)C [Compound I-118] | 18.2 | 10.3 | 237 | 
COc1ccc(Nc2ncc(F)c(NC3CC(C)(C)N(C)C(C)(C)C3)n2)cc1OC(F)F [Compound I-239] | 2.06 | 54.6 | 99.1 | 
CN1C(C)(C)CC(Nc2nc(Nc3ccc(N4CCCC4)c(C#N)c3)ncc2F)CC1(C)C [Compound I-200] | 1.11 | 41.9 | 185 | 
CCN1C(=O)C(F)(F)Oc2cc(Nc3ncc(F)c(NC4CC(C)(C)N(C)C(C)(C)C4)n3)ccc21 [II-31] | 1.35 | 27.1 | 26.4 | 
CCN1CCN(c2ccc(Nc3ncc(F)c(NC4CC(C)(C)N(C)C(C)(C)C4)n3)cc2C(F)(F)F)CC1 [Compound I-246] | 3.37 | 9.94 | 117 | 
CN1CCN(c2ccc(Nc3ncc(F)c(NC4CC(C)(C)N(C)C(C)(C)C4)n3)cc2C#N)CC1 [Compound I-132] | 1.82 | 12.5 | 64.9 | 
COc1ccc(Nc2ncc(Cl)c(NC3CC(C)(C)N(C)C(C)(C)C3)n2)cc1OC(F)F [Compound I-341] | 0.55 | 53.2 | 45.6 | 

Compound | IC50 (PKC theta) [nM] | IC50 (PKC epsilon) [nM] | IC50 (Human primary T cells; Homo sapiens, T-cell, 24 h) [nM] | IC50 (Human primary T cells; 24 hours) [nM]
Cc1nnnn1-c1cccc(Nc2ncc(C#N)c(NC3CC(C)(C)NC(C)(C)C3)n2)c1 [Compound I-463] | 3.6 | 125 | 590 | 
CSc1nnnn1-c1cccc(Nc2ncc(F)c(NC3CC(C)(C)NC(C)(C)C3)n2)c1 [Compound I-416] | 3.3 | 13 | 80 | 
CN1C(C)(C)CC(Nc2nc(Nc3ccc4c(c3)oc(=O)n4CC3CC3)ncc2F)CC1(C)C [II-163] | 6.1 | 140 | 280 | 
CN1C(C)(C)CC(Nc2nc(Nc3cccc(-c4nn[nH]n4)c3)ncc2F)CC1(C)C [Compound I-470] | 698 | 941 |  | 
COc1ccc(Nc2ncc(F)c(NC3CC(C)(C)N(C)C(C)(C)C3)n2)cc1C(F)(F)F [Compound I-147] | 8.01 | 115 | 168 | 
COc1ccc(Nc2ncc(C#N)c(NC3CC(C)(C)N(C)C(C)(C)C3)n2)cc1Cl [Compound I-93] | 2.59 | 208 | 344 | 
Cc1ccc(Nc2ncc(F)c(NC3CC(C)(C)N(C)C(C)(C)C3)n2)cc1-c1cnn(C)c1 [Compound I-190] | 14.5 |  | 516 | 
CC1(C)CC(Nc2nc(Nc3cccc(-c4nn[nH]n4)c3)ncc2F)CC(C)(C)N1 [Compound I-471] |  | 982 |  | 
CN1CCN(c2ccc(Nc3ncc(F)c(NC4CC(C)(C)N(C)C(C)(C)C4)n3)cc2F)CC1 [Compound I-39] | 15 |  | 937 | 
CN1C(C)(C)CC(Nc2nc(Nc3ccc(N4CCN(S(C)(=O)=O)CC4)c(OC(F)F)c3)ncc2F)CC1(C)C [Compound I-238] | 3.94 |  | 115 | 
CN1C(C)(C)CC(Nc2nc(Nc3ccc(C#N)c(Cl)c3)ncc2F)CC1(C)C [Compound I-22] | 21 |  | 177 | 
Cc1cc(Nc2ncc(F)c(NC3CC(C)(C)N(C)C(C)(C)C3)n2)ccc1N1CCN(C)CC1 [Compound I-4] | 30 |  | 254 | 
CN1C(C)(C)CC(Nc2nc(Nc3ccc(-c4ccoc4)c(Cl)c3)ncc2F)CC1(C)C [Compound I-155] | 14.4 |  | 418 | 
CN1CCN(c2ccc(Nc3ncc(C(F)(F)F)c(NC4CC(C)(C)N(C)C(C)(C)C4)n3)cc2Cl)CC1 [Compound I-34] | 4 |  | 123 | 
CN1C(C)(C)CC(Nc2nc(Nc3ccc(N4CCN(S(C)(=O)=O)CC4)c(C(F)(F)F)c3)ncc2F)CC1(C)C [Compound I-244] | 34.1 |  | 248 | 
CN1CCN(c2ccc(Nc3ncc(F)c(NC4CC(C)(C)N(C)C(C)(C)C4)n3)cc2)CC1 [Compound I-1] | 226 |  | 3020 | 
CN1CCN(c2ccc(Nc3ncc(Cl)c(NC4CC(C)(C)N(C)C(C)(C)C4)n3)cc2C#N)CC1 [Compound I-179] | 1.49 |  | 92.2 | 
CN1C(C)(C)CC(Nc2nc(Nc3ccc(F)c(Br)c3)ncc2F)CC1(C)C [Compound I-158] | 20.6 |  | 489 | 
CN1CCN(c2ccc(Nc3ncc(F)c(NC4CC(C)(C)N(C)C(C)(C)C4)n3)cc2C(F)(F)F)CC1 [Compound I-5] | 5 |  | 86 | 

From US8993585B2, “Cyclic amine substituted pyrimidinediamines as PKC inhibitors” (Rigel Pharmaceuticals, Inc., priority 2007, dated 2015)
